# Data as given in patent US6150414A, “Compositions and methods for treating viral infections” (priority 1992, dated 2000).
# Where “and” joins values, the source holds several entries; their conditions need not be identical. Equal values may be shown once. Read-outs that look alike come from different tables or passages of the source.
# Experiments:
# [1] = system: virus budding in virus-producing cells; test: In vitro inhibition of virus budding: production of defective budded virions (Example 10); assay type: cell-based; conditions: read-out: EC50 for production of defective budded virions
# Text: (§1) The results presented above in Table IX are presented as EC50 concentrations. These are the effective concentrations which inhibit 50% of the viruses in micromolar concentrations.
# retroviruses = test: Comparison over two in vitro and one in vivo biological assays (Example 10)
# Procedure: In order to investigate the structural features of hypericin which are essential for antiretroviral activity, numerous analogs and precursors of hypericin were examined for activity in two in vitro and one in vivo biological assay.
# (§2) (1) Direct inactivation of retroviruses in vitro, performed as in Example 3 above;
# (§3) (3) In vivo inhibition of Friend Leukemia Virus Splenomegaly performed as described in Example 1 above except that the compounds were administered intravenously 1-2 hours post infection.
# Friend Leukemia Virus [2] = test: Inhibition of Friend Leukemia Virus-induced splenomegaly in mice, compounds intraperitoneally 24 hours after virus (Example 1(a)); assay type: in vivo, BALB/c mice; parameters: Actual Spleen Weight / Average Spleen Weight: unit not given here; conditions: Table III
# Summary of the method: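 BALB/c mice inoculated i.v. with 10^6 FFU Friend virus (spleen homogenate); compounds given i.p. 24 h later at 100 μg once, or 50, 100, 200 μg or 2×100 μg (second dose 24–48 h after first), two mice per group. Spleens weighed at day 10; percent inhibition from average spleen weights relative to negative and positive controls.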
# Friend Leukemia Virus [3] = test: In vivo inhibition of Friend Leukemia Virus splenomegaly, intravenous 1-2 hours post infection (Example 10); parameters: species or system mice; conditions: Mus musculus, read-out: EC50 for FV-induced splenomegaly
# Procedure: as §3, §1
# retroviruses (virions) = test: Direct inactivation of retroviruses (virions) in vitro (Example 10); assay type: biochemical, Radiation Leukemia Virus; conditions: Table IX
# Procedure: (§4) Supernatants (10 ml/tube) from B10.T(6R) cells (Meruelo et al. J. Exp. Med. 147: 470-487, 1978) chronically infected with Radiation Leukemia Virus (RadLV) were obtained by centrifugation of cells in culture at 4° C., 3500 rpm for 15 minutes. The top 2/3 of the supernatant were removed and aliquots were incubated for 30 minutes on ice with the indicated amounts of hypericin or protohypericin. […] Thereafter, supernatants were centrifuged at 100,000×g using a TI70 rotor (Beckman Instruments) for 1 hour at 4° C. The pellet was […] and analyzed for reverse transcriptase activity as follows.
# (§5) The reverse transcriptase assay was performed in a volume of 100 microliters containing the following components:
# as §2, §1
# [4] = Stability to light and pH; assay type: physicochemical; conditions: irradiation / exposure to light
# [5] = target: T1, Radiation Leukemia Virus reverse transcriptase (Radiation murine leukemia virus, UniProt P11227); test: Reverse transcriptase assay of Radiation Leukemia Virus from B10.T(6R) cell supernatants (Example 3); assay type: biochemical; conditions: for Average CPM / CPM / Average percent inhibition: Table V; for CPM: replicate
# T1 construct: the reverse transcriptase of Radiation Leukemia Virus; endogenous in cells
# Procedure: as §4, §5
# The reverse transcriptase assay provides a measure of the antiviral activity of the compounds tested by reference to the observed decrease in activity of this enzyme.
# In Table V, "CPM" is "counts per minute", "Average" is the numerical average of CPM values within each group of animals.
# [6] = target: T1, Radiation Leukemia Virus reverse transcriptase; test: Radiation Leukemia Virus reverse transcriptase assay, supernatants from infected AQR cells (Examples 4 and 9); assay type: biochemical; conditions: for CPM: replicate; for inhibition at 0.01 mg / inhibition at 50 ng / inhibition at 0.0001 mg / inhibition at 0.0005 mg / inhibition at 0.001 mg / inhibition at 0.002 mg / inhibition at 0.005 mg: 0.5 h; for inhibition at 0.01 mg: read-out: Average % Inhibition
# Procedure: as §4, §5
# The antiviral activity of HHA was tested using AQR (Bach and Meruelo, J. Exp. Med. 160:270-285, 1984) cells chronically infected with Radiation Leukemia Virus in the reverse transcriptase assay as described in Example 3 above.
# The assays were conducted using the same procedure as in Example 3 above, using supernatants from infected AQR cells.
# Friend Virus = test: Friend Virus-induced splenomegaly, WIS compounds (Example 8); assay type: in vivo, mice; parameters: Actual Spleen Weight / Average Spleen Weight: unit not given here; conditions: for Average % Inhibition / Average Spleen Weight / Actual Spleen Weight: Table VII; for Actual Spleen Weight: single animal
# Procedure: The effects of compositions according to the present invention on the increase in spleen size (splenomegaly) of BALB/c mice (Jackson Labs, Bar Harbor, ME) was examined. In these experiments, the virus (10^6 focus forming units--FFU) was inoculated intravenously and 100 micrograms of the compounds indicated in Table II were administered to the mice intraperitoneally 24 hours later. Each compound was administered once to two mice. The animals were sacrificed ten days later and their spleens weighed.
# As used in Table II (and subsequent Tables of this Example l(a) and (b), "average percent inhibition" is calculated as follows: [formula] wherein "ASWNC" designates "average spleen weight of negative control"; "ASWE" designates "average spleen weight of experimental (treated) subject"; and "ASWPC" designates "average spleen weight of positive control". Average spleen weight is the numerical average of spleen weights of each experimental group (in Table II each such group includes two members).
# The AAB compounds whose synthesis is described above were assayed for antiviral activity. WIS-2, -3, -4, -5 and -6 were tested to determine their biological effects on Friend Virus-induced splenomegaly using the procedure and technique set forth in Example 1 above. The assay results (three mice per group were tested each at different concentrationss of the active composition except for the PBS-negative control wherein two animals per group were used) are reported in Table VII below.
structure (smiles),measurement,setting,value
"O=C(O)c1cc(O)c2c(=O)c3c(O)cc(O)c4c5c(O)cc(O)c6c(=O)c7c(O)cc(C(=O)O)c8c1c2c(c34)c(c65)c78 [WIS-1, Hypericin-dicarboxylic acid]",EC50,[1],> 100 µM
same,loss of antiviral activity relative to parent,"retroviruses; Example 10, structural comparison",diminished the antiviral activity
"O=C1c2ccccc2C(=C2c3ccccc3C(=O)c3ccccc32)c2ccccc21 [Compound 36, Bianthrone]",inhibition in vivo at 0.1 mg,"Friend Leukemia Virus [2]; Mus musculus, ip, dose 2 × 100 (micrograms) i.p., read-out: Average Perdosage % Inhibition",50%
same,inhibition in vivo at 0.05 mg,"Friend Leukemia Virus [2]; Mus musculus, ip, dose 50 (micrograms) i.p., read-out: Average Perdosage % Inhibition",52%
same,inhibition in vivo at 0.1 mg,"Friend Leukemia Virus [2]; Mus musculus, ip, dose 100 (micrograms) i.p., read-out: Average Perdosage % Inhibition",48%
same,inhibition in vivo at 0.2 mg,"Friend Leukemia Virus [2]; Mus musculus, ip, dose 200 (micrograms) i.p., read-out: Average Perdosage % Inhibition",57%
same,Average Spleen Weight,Friend Leukemia Virus [2]; dose 2 × 100 (micrograms) i.p.,1.1353
same,Average Spleen Weight,Friend Leukemia Virus [2]; dose 50 (micrograms) i.p.,1.0839
same,Average Spleen Weight,Friend Leukemia Virus [2]; dose 100 (micrograms) i.p.,1.1575
same,Average Spleen Weight,Friend Leukemia Virus [2]; dose 200 (micrograms) i.p.,0.9970
same,Pooled Average % Inhibition,"Friend Leukemia Virus [2]; pooled over 50, 100, 200, 2 × 100 micrograms",52%
same,EC50,"[1]; in vitro, Table IX",> 100 µM
same,EC50,"Friend Leukemia Virus [3]; i.v. 1-2 hours post infection, Table IX",98 µM
"Cc1cc(O)c2c(=O)c3c(O)cc(O)c4c5c(O)cc(O)c6c(=O)c7c(O)cc(C)cc7c(c65)c(c2c1)c34 [protohypericin, Protohypericin]",EC50,retroviruses (virions),7.9 µM
same,stability to light,[4],converts to hypericin upon exposure to light
same,Average CPM,[5]; 0.05 micrograms,"309,103 CPM"
same,CPM,[5]; 0.05 micrograms,"310,952 CPM and 307,254 CPM"
same,Average CPM,[5]; 0.1 micrograms,"261,083 CPM"
same,CPM,[5]; 0.1 micrograms,"216,824 CPM and 305,342 CPM"
same,Average CPM,[5]; 0.5 micrograms,"257,879 CPM"
same,CPM,[5]; 0.5 micrograms,"264,710 CPM and 251,048 CPM"
same,Average CPM,[5]; 1 microgram,"227,614 CPM"
same,CPM,[5]; 1 microgram,"192,184 CPM and 263,044 CPM"
same,Average CPM,[5]; 5 micrograms,"12,633 CPM"
same,Average percent inhibition,[5]; 5 micrograms,94.0%
same,CPM,[5]; 5 micrograms,"12,358 CPM and 12,908 CPM"
same,Average CPM,[5]; 10 micrograms,"185,539 CPM"
same,Average percent inhibition,[5]; 10 micrograms,11.3%
same,CPM,[5]; 10 micrograms,"202,656 CPM and 168,422 CPM"
same,Average CPM,[5]; 50 micrograms,"71,641 CPM"
same,Average percent inhibition,[5]; 50 micrograms,65.8%
same,CPM,[5]; 50 micrograms,"75,816 CPM and 67,466 CPM"
same,Average CPM,[5]; 100 micrograms,"10,281 CPM"
same,Average percent inhibition,[5]; 100 micrograms,95.1%
same,CPM,[5]; 100 micrograms,"8,818 CPM and 11,744 CPM"
same,inhibition of RadLV reverse transcriptase activity,[5]; Example 3,significantly inhibited the reverse transcriptase activity of RadLV
same,concentration required relative to hypericin for the same degree of RT inhibition,"[5]; RadLV, vs hypericin",10 to 100 fold
same,EC50,Friend Leukemia Virus [3],98 µM
"O=c1c2c(O)ccc3c4ccc(O)c5c(=O)c6c(O)cc(O)c7c8c(O)cc(O)c1c8c(c23)c(c54)c67 [WIS-3, desmethylhypericin]",Average CPM,"[6]; 0.05 micrograms, Table VIII","78,424 CPM"
same,CPM,"[6]; 0.05 micrograms, Table VIII","89,170 CPM and 67,678 CPM"
same,Average CPM,"[6]; 0.1 micrograms, Table VIII","20,893 CPM"
same,CPM,"[6]; 0.1 micrograms, Table VIII","19,322 CPM and 22,464 CPM"
same,Average CPM,"[6]; 0.5 micrograms, Table VIII","2,799 CPM"
same,CPM,"[6]; 0.5 micrograms, Table VIII","2,630 CPM and 2,968 CPM"
same,Average CPM,"[6]; 1 microgram, Table VIII","24,606 CPM"
same,CPM,"[6]; 1 microgram, Table VIII","21,896 CPM and 27,316 CPM"
same,Average CPM,"[6]; 2 micrograms, Table VIII","15,467 CPM"
same,CPM,"[6]; 2 micrograms, Table VIII","14,020 CPM and 16,914 CPM"
same,Average CPM,"[6]; 5 micrograms, Table VIII","76,907 CPM"
same,CPM,"[6]; 5 micrograms, Table VIII","75,776 CPM and 78,038 CPM"
same,Average CPM,"[6]; 10 micrograms, Table VIII","119,248 CPM"
same,CPM,"[6]; 10 micrograms, Table VIII","57,512 CPM and 61,736 CPM"
same,inhibition at 0.01 mg,[6],85.4%
same,inhibition at 50 ng,"[6]; 0.05 micrograms, Table VIII",90.4%
same,inhibition at 0.0001 mg,"[6]; 0.1 micrograms, Table VIII",97.4%
same,inhibition at 0.0005 mg,"[6]; 0.5 micrograms, Table VIII",99.7%
same,inhibition at 0.001 mg,"[6]; 1 microgram, Table VIII",97%
same,inhibition at 0.002 mg,"[6]; 2 micrograms, Table VIII",98.1%
same,inhibition at 0.005 mg,"[6]; 5 micrograms, Table VIII",90.6%
same,inhibition of RadLV reverse transcriptase activity,[6]; Example 9,highest level of antiviral activity of the compounds that were tested in this assay
same,EC50,retroviruses (virions),0.07 µM
same,EC50,"[1]; in vitro, Table IX",2 µM
same,activity across assays,retroviruses; Example 10,high degree of activity in a more than one assay
same,EC50,Friend Leukemia Virus [3],174 µM
same,Average % Inhibition,Friend Virus; 1 microgram,24.3%
same,Average Spleen Weight,Friend Virus; 1 microgram,0.7737
same,Actual Spleen Weight,Friend Virus; 1 microgram,0.7527 and 0.8048 and 0.7277
same,Average % Inhibition,Friend Virus; 10 micrograms,24.1%
same,Average Spleen Weight,Friend Virus; 10 micrograms,0.7759
same,Actual Spleen Weight,Friend Virus; 10 micrograms,0.7727 and 0.8108 and 0.7413
same,Average % Inhibition,Friend Virus; 50 micrograms,34.7%
same,Average Spleen Weight,Friend Virus; 50 micrograms,0.6921
same,Actual Spleen Weight,Friend Virus; 50 micrograms,0.6998 and 0.6723 and 0.7041
same,Average % Inhibition,Friend Virus; 150 micrograms,79.7%
same,Average Spleen Weight,Friend Virus; 150 micrograms,0.3290
same,Actual Spleen Weight,Friend Virus; 150 micrograms,0.2967 and 0.3518 and 0.3384
same,antiviral activity in splenomegaly assay,Friend Virus; Example 8,most active compounds of the group in the splenomegaly assay
"O=c1c2ccccc2c2c3c1c(O)cc(O)c3c1c(O)cc(O)c3c(=O)c4ccccc4c2c31 [WIS-2, Tetrahydroxy-dibenzoperylene-dione]",inhibition at 50 ng,"[6]; 0.05 micrograms, Table VIII",41.6%
same,inhibition at 0.0001 mg,"[6]; 0.1 micrograms, Table VIII",70.8%
same,inhibition at 0.0005 mg,"[6]; 0.5 micrograms, Table VIII",98.1%
same,inhibition at 0.001 mg,"[6]; 1 microgram, Table VIII",98.7%
same,inhibition at 0.002 mg,"[6]; 2 micrograms, Table VIII",99.5%
same,inhibition at 0.005 mg,"[6]; 5 micrograms, Table VIII",99.5%
same,inhibition at 0.01 mg,"[6]; 10 micrograms, Table VIII",99.5%
same,stability to light,[4],did not change upon irradiation
same,Average % Inhibition,Friend Virus; 1 microgram,53.9%
same,Average Spleen Weight,Friend Virus; 1 microgram,0.7015
same,Actual Spleen Weight,Friend Virus; 1 microgram,0.6615 and 0.7519 and 0.6912
same,Average % Inhibition,Friend Virus; 10 micrograms,62.7%
same,Average Spleen Weight,Friend Virus; 10 micrograms,0.4701
same,Actual Spleen Weight,Friend Virus; 10 micrograms,0.4263 and 0.4868 and 0.4972
same,Average % Inhibition,Friend Virus; 50 micrograms,64.0%
same,Average Spleen Weight,Friend Virus; 50 micrograms,0.4603
same,Actual Spleen Weight,Friend Virus; 50 micrograms,0.4818 and 0.4925 and 0.4066
same,Average % Inhibition,Friend Virus; 150 micrograms,66.3%
same,Average Spleen Weight,Friend Virus; 150 micrograms,0.4416
same,Actual Spleen Weight,Friend Virus; 150 micrograms,0.4075 and 0.4656 and 0.4517
